Source: patent US7696246B2 (Ligand Pharmaceuticals Incorporated, priority 1999, dated 2010)
Like-named read-outs stand apart in the source and are kept apart here.

Key:
[1] = molecular target: T1, human AR (Homo sapiens, UniProt P10275); assay: Co-transfection assay, AR agonist activity (CV-1 cells, MTV-LUC reporter); format: cell-based; conditions: CV-1 cells; agonist potency EC50
T1 sequence (P10275 1-920): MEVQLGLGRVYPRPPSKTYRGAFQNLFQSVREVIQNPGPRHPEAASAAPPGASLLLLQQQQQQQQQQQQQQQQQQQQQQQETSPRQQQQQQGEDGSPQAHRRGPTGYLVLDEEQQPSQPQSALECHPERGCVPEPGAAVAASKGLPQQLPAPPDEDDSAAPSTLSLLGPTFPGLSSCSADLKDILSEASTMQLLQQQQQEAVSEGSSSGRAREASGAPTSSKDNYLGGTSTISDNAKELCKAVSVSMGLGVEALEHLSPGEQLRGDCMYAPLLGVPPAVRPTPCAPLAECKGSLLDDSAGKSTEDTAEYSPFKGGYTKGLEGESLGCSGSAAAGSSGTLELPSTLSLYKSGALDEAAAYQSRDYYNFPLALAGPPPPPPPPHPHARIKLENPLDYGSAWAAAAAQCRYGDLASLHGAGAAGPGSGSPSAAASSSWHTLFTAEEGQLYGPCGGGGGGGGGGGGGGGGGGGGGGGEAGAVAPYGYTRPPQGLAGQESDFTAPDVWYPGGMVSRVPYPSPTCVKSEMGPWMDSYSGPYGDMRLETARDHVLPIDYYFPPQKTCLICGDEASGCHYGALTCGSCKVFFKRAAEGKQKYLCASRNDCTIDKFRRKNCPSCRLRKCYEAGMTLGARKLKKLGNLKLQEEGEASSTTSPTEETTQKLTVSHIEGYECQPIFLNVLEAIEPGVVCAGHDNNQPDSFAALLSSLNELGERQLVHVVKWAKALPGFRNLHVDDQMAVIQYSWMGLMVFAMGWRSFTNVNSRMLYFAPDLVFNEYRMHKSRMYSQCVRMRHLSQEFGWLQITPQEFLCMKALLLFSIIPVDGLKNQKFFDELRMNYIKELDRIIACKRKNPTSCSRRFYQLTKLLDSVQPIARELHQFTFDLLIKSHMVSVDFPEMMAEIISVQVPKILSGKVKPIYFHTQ

[2] = molecular target: T1, human AR; assay: Co-transfection assay, AR antagonist activity (CV-1 cells, in presence of DHT); format: cell-based; conditions: for AR Antagonist CV-1 Cells Efficacy (%): percent maximal inhibition, DHT at its EC50; for IC50: read-out: AR Antagonist CV-1 Cells Potency
[3] = molecular target: T1, human AR; assay: AR whole cell competitive binding assay (COS-1 cells, 3H-DHT); conditions: 1 nM 3H-DHT, Cheng-Prusoff
Description: AR Binding: For the whole cell binding assay, COS-1 cells in 96-well microtiter plates containing DMEM-10% FBS were transfected as described above with the following plasmid DNA: pRShAR (2 ng/well), pRS-β-Gal (50 ng/well) and pGEM (48 ngcwell). Six hours after transfection, media was removed, the cells were washed with PBS and fresh media was added. The next day, the media was changed to DMEM-serum free to remove any endogenous ligand that might be complexed with the receptor in the cells.
Three replicates were used for each sample. […] The remaining media was removed, the cells were washed three times with PBS to remove unbound ligand, and cells were lysed with a Triton X-100-based buffer.
For the saturation analyses, the difference between the total binding and the nonspecific binding, normalized by the β-Gal rate, was defined as specific binding. […] The Ki values were determined by application of the Cheng-Prusoff equation to the IC50 values, where:
(§1) After correcting for non-specific binding, IC50 values were determined. […] The IC50 value was determined graphically from a log-logit plot of the data. The Ki values were determined by application of the Cheng-Prusoff equivuation to the IC50 values, the labeled ligand concentration and the Kd of the labeled ligand.

[4] = molecular target: T2, PR (Homo sapiens, UniProt P06401); assay: PR competitive binding assay; conditions: Cheng-Prusoff
T2 sequence (P06401 1-933): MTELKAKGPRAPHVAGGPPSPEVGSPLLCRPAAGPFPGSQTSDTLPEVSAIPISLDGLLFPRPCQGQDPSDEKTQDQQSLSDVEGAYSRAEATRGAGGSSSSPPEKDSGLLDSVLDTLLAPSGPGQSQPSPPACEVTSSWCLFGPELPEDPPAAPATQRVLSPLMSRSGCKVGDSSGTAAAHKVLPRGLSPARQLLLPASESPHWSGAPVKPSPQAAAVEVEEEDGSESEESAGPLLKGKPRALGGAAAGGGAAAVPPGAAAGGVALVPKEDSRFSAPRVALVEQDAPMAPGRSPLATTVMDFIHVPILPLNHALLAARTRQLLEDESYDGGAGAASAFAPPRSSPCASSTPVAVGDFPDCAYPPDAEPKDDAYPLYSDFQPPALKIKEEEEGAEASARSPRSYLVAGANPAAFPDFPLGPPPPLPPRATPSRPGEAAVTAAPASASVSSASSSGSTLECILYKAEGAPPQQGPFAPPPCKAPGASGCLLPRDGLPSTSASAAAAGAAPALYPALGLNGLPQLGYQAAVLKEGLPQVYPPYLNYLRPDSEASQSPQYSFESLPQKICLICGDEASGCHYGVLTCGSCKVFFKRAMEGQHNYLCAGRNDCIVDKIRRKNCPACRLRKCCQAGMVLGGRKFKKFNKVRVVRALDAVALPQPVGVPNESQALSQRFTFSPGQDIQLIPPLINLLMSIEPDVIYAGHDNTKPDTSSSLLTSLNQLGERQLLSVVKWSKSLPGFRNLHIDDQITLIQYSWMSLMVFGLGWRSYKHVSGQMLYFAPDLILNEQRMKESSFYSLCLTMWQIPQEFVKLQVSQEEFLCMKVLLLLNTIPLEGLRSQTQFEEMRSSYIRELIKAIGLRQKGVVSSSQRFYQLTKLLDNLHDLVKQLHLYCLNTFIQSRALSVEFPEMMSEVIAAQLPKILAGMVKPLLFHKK
Description: as §1

[5] = molecular target: T2, PR; assay: Co-transfection assay, PR agonist activity (CV-1 cells); format: cell-based; set-up: expressed in transfected cells; host or cells: CV-1 cells; conditions: for EC50: agonist potency EC50; for PR Agonist CV-1 Cells Efficacy (%): percent maximal response relative to reference agonist progesterone
[6] = molecular target: T2, PR; assay: Co-transfection assay, PR antagonist activity (CV-1 cells, in presence of progesterone); format: cell-based; set-up: expressed in transfected cells; host or cells: CV-1 cells; conditions: for PR Antagonist CV-1 Cells Efficacy (%): percent maximal inhibition, progesterone at its EC50
[7] = read-out: PR Antagonist CV-1 Cells Potency

Row | SMILES | melting point [°C] | EC50 [1] [nM] | AR Antagonist CV-1 Cells Efficacy (%) [2] [%] | IC50 [2] [nM] | Ki [3] [nM] | Ki [4] [nM] | EC50 [5] [nM] | PR Agonist CV-1 Cells Efficacy (%) [5] | PR Antagonist CV-1 Cells Efficacy (%) [6] [%] | IC50 [6, 7] [nM] | IC50 [6] [nM]
1 | CC(C)(O)C(=O)Nc1ccc2c(C(F)(F)F)cc(=O)[nH]c2c1 | 289 to 291 |  |  |  |  |  |  |  |  |  | 
2 | CC1(C)OC(=O)Nc2ccc(C3=CCCCC3)cc21 [Compound 667, 6-(1-Cyclohexenyl)-1,4-dihydro-4,4-dimethyl-1,3-benzo[d]oxazin-2-one] |  | > 10000 | 89 | 27 | 7.4 | 144 | > 10000 | na (na = not active (i.e. efficacy of <20 and potency of >10,000)) | 89 | 70 | 
3 | CC1(C)OC(=S)Nc2ccc(C3=CCCCC3)cc21 [Compound 689, 6-(1-Cyclohexenyl)-1,4-dihydro-4,4-dimethyl-1,3-benzo[d]oxazin-2-thione] |  | > 10000 | 89 | 40 | 132 | 23 | 2700 | 105% | 47 | 35 | 
4 | O=c1cc(C(F)(F)F)c2cc(-c3cccc(F)c3F)ccc2[nH]1 [Compound 725, 6-(2,3-Difluoro)phenyl-4-trifluoromethyl-2(1H)-quinolinone] |  | > 10000 | 87 | 79 | > 1000 | 400 | > 10000 | na (na = not active (i.e. efficacy of <20 and potency of >10,000)) | 92 |  | 149
